Converted amounts (≈) assume the structure as drawn.
Columns and labels:
Format in all cases: functional
[1] = system: FM3A; experiment: Ability to inhibit murine FM3A tumor cell proliferation by 50%; details: Mus musculus, read-out: ID50 (the source's name)
[2] = system: Raji; experiment: Ability to inhibit human Raji tumor cell proliferation by 50%; details: read-out: ID50 (the source's name)
[3] = system: L1210; experiment: Ability to inhibit murine L1210 tumor cell proliferation by 50%; details: Mus musculus, read-out: ID50 (the source's name)
[4] = system: CCRF-CEM; experiment: Ability to inhibit human CEM tumor cell proliferation by 50%; details: read-out: ID50 (the source's name)
[5] = Ability to inhibit human Molt/4F tumor cell proliferation by 50%; details: read-out: ID50 (the source's name)
[6] = system: H9; experiment: Ability to inhibit human H9 tumor cell proliferation by 50%; details: read-out: ID50 (the source's name)
[7] = system: MT4; experiment: Ability to inhibit human MT-4 tumor cell proliferation by 50%; details: read-out: ID50 (the source's name)

Row | Structure (SMILES) | IC50 [2] | IC50 [3] | IC50 [4] | IC50 [1] | IC50 [5] | IC50 [6] | IC50 [7]
1 | C/C(=C\COc1ccc2ccc(=O)oc2c1)C1=CC(=O)C2(CCCCC2)O1 | 5.43 mg/L (≈ 14.8 µM) | 1.82 mg/L (≈ 4.97 µM) | 2.72 mg/L (≈ 7.42 µM) | 6.61 mg/L (≈ 18 µM) | 12.7 mg/L (≈ 34.7 µM) | 2.08 mg/L (≈ 5.68 µM) | 2.1 mg/L (≈ 5.73 µM)
2 | C/C(=C\COc1ccc2ccc(=O)oc2c1)C1=CC(=N)C2(CCCCC2)O1 | 23.5 mg/L (≈ 64.3 µM) | 4.05 mg/L (≈ 11.1 µM) | 4.95 mg/L (≈ 13.5 µM) | 15.8 mg/L (≈ 43.2 µM) | 20.5 mg/L (≈ 56.1 µM) | 14.2 mg/L (≈ 38.9 µM) | 4.93 mg/L (≈ 13.5 µM)
3 | C/C(=C\CO)CC1=CC(=O)C(C)(C)O1 | 16.6 mg/L (≈ 84.6 µM) | 15.8 mg/L (≈ 80.5 µM) | 10.3 mg/L (≈ 52.5 µM) | 23.3 mg/L (≈ 119 µM) | 15.2 mg/L (≈ 77.5 µM) | 9.13 mg/L (≈ 46.5 µM) | 3.05 mg/L (≈ 15.5 µM)
4 | CCCCCC1=CC(=N)C(C)(C)O1 | > 100 mg/L | 98.3 mg/L (≈ 542 µM) | > 100 mg/L | 24.2 mg/L (≈ 133 µM) | > 100 mg/L | > 100 mg/L | > 100 mg/L
5 | CCC1OC(/C(C)=C/COc2ccc3ccc(=O)oc3c2)=CC1=O (centres undefined) | 2.43 mg/L (≈ 7.45 µM) | 9.77 mg/L (≈ 29.9 µM) | 3.27 mg/L (≈ 10 µM) | 17.2 mg/L (≈ 52.7 µM) | 2.84 mg/L (≈ 8.7 µM) | 4.1 mg/L (≈ 12.6 µM) | 1.63 mg/L (≈ 4.99 µM)
6 | CCC1(C)OC(/C(C)=C/COc2ccc3ccc(=O)oc3c2)=CC1=O (centres undefined) | 2.59 mg/L (≈ 7.61 µM) | 2.05 mg/L (≈ 6.02 µM) | 2.49 mg/L (≈ 7.32 µM) | 2.96 mg/L (≈ 8.7 µM) | 3.02 mg/L (≈ 8.87 µM) | 2.15 mg/L (≈ 6.32 µM) | 0.53 mg/L (≈ 1.56 µM)
7 | COc1ccccc1C1=CC(=O)CO1 | > 100 mg/L | > 100 mg/L | > 100 mg/L | > 100 mg/L | > 100 mg/L | 66.3 mg/L (≈ 349 µM) | 44.4 mg/L (≈ 233 µM)
8 | C/C(=C\COc1ccc2ccc(=O)oc2c1)C1=CC(=O)C(C)(C)O1 [GEIPARVARIN] | 2.19 mg/L (≈ 6.71 µM) | 2.07 mg/L (≈ 6.34 µM) | 2 mg/L (≈ 6.13 µM) | 3.2 mg/L (≈ 9.81 µM) | 2.84 mg/L (≈ 8.7 µM) | 1.97 mg/L (≈ 6.04 µM) | 0.32 mg/L (≈ 0.981 µM)
9 | O=C1C=C(c2ccccc2)OC1 | 50.1 mg/L (≈ 313 µM) | 45.8 mg/L (≈ 286 µM) | 30.2 mg/L (≈ 189 µM) | 31.4 mg/L (≈ 196 µM) | 31.2 mg/L (≈ 195 µM) | 38.6 mg/L (≈ 241 µM) | 31.7 mg/L (≈ 198 µM)
10 | CC1(C)OC(c2ccccc2)=CC1=N | > 100 mg/L | 66.4 mg/L (≈ 355 µM) | > 100 mg/L | 24.7 mg/L (≈ 132 µM) | > 100 mg/L | > 100 mg/L | 76.2 mg/L (≈ 407 µM)
11 | COc1ccccc1C1=CC(=O)C(C)(C)O1 | 89.1 mg/L (≈ 408 µM) | 40.4 mg/L (≈ 185 µM) | 66.1 mg/L (≈ 303 µM) | 31.7 mg/L (≈ 145 µM) | 53.3 mg/L (≈ 244 µM) | 63.9 mg/L (≈ 293 µM) | 30.4 mg/L (≈ 139 µM)

Continued, in another order:

Row | IC50 [2] | IC50 [3] | IC50 [4] | Structure (SMILES) | IC50 [1] | IC50 [5] | IC50 [6] | IC50 [7]
12 | > 100 mg/L | > 100 mg/L | > 100 mg/L | CC(C)CC1=CC(=N)C(C)(C)O1 | 33 mg/L (≈ 197 µM) | > 100 mg/L | > 100 mg/L | > 100 mg/L
13 | 10.4 mg/L (≈ 33.3 µM) | 7.05 mg/L (≈ 22.6 µM) | 3.56 mg/L (≈ 11.4 µM) | C/C(=C\COc1ccc2ccc(=O)oc2c1)C1=CC(=O)C(C)O1 (centres undefined) | 15.6 mg/L (≈ 49.9 µM) | 3.32 mg/L (≈ 10.6 µM) | 2.91 mg/L (≈ 9.32 µM) | 2.56 mg/L (≈ 8.2 µM)
14 | 24 mg/L (≈ 96.3 µM) | 24.2 mg/L (≈ 97.1 µM) | 29.3 mg/L (≈ 118 µM) | CC1=CC(=N)C(c2ccccc2)(c2ccccc2)O1 | 25.4 mg/L (≈ 102 µM) | 25.3 mg/L (≈ 101 µM) | 30 mg/L (≈ 120 µM) | 26.5 mg/L (≈ 106 µM)
15 | 26 mg/L (≈ 79.9 µM) | 18.4 mg/L (≈ 56.6 µM) | 18.8 mg/L (≈ 57.8 µM) | C/C(=C\COc1ccc2ccc(=O)oc2c1)C1=CC(=N)C(C)(C)O1 | 20.7 mg/L (≈ 63.6 µM) | 25.8 mg/L (≈ 79.3 µM) | 21.7 mg/L (≈ 66.7 µM) | 8.77 mg/L (≈ 27 µM)
16 | > 100 mg/L | > 100 mg/L | > 100 mg/L | CC(C)CC1=CC(=N)C(C)(C)O1.O=C(O)C(=O)O | 33.2 mg/L | > 100 mg/L | > 100 mg/L | > 100 mg/L
17 | 17.9 mg/L (≈ 52.7 µM) | 4.71 mg/L (≈ 13.9 µM) | 3.57 mg/L (≈ 10.5 µM) | CCC1(C)OC(/C(C)=C/COc2ccc3ccc(=O)oc3c2)=CC1=N (centres undefined) | 14.1 mg/L (≈ 41.5 µM) | 3.17 mg/L (≈ 9.34 µM) | 2.58 mg/L (≈ 7.6 µM) | 2.65 mg/L (≈ 7.81 µM)
